Consider one compound from patent US20250195517A1, “TREATMENT OF INTRACRANIAL HEMORRHAGE” (ImmunoChem Therapeutics, LLC, priority 2022, published 2025).

In this assay the test system is animal models of acute brain injuries such as intracranial hemorrhage. As to the kind of experiment: animal models of acute brain injuries such as intracranial hemorrhage. The class given is in vivo. The source says:
MW189 is a novel small molecule drug candidate developed as a selective suppressor of disease- and injury-induced proinflammatory cytokine overproduction associated with destructive neuroinflammation/synaptic dysfunction cycles. […] The investigators seek to establish if these targets are modified in humans with intracranial hemorrhage.

Consider `c1ccc(-c2cc(-c3ccncc3)c(N3CCN(c4ncccn4)CC3)nn2)cc1` [MW189], for which the cerebral edema entry is recorded as “reduces cerebral edema”; the “functional and cognitive performance” value was “improves functional and cognitive performance”; the neuroinflammation entry is listed as “attenuates neuroinflammation”.
